This note sets out measurements from the supplement of paper PMC10307832.

Holding throughout (experiment): relative viability (nuclei count vs DMSO), 5 days (fraction); higher = more cells survive
Compound in the assay “Selumetinib + OSI-027”: Cn1cnc2c(F)c(Nc3ccc(Br)cc3Cl)c(C(=O)NOCCO)cc21 [Selumetinib] + COc1cccc2cc(-c3nc([C@H]4CC[C@H](C(=O)O)CC4)n4ncnc(N)c34)[nH]c12 [OSI-027] (partner 0.5 µM)
A digest of the protocol:
(§1)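 Each reported value is a median over duplicate plates. It expresses relative viability: treated-well nuclei count divided by vehicle-well nuclei count. Lung cancer cell lines in 1536-well plates were dosed by pin tool a day after seeding, alone with one drug or with a fixed anchor-drug dose plus five library-drug doses (not always all listed) in √10 steps, and nuclei were counted after 5 days.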

Compound in the assay “Venetoclax + Vorinostat”: CC1(C)CCC(CN2CCN(c3ccc(C(=O)NS(=O)(=O)c4ccc(NCC5CCOCC5)c([N+](=O)[O-])c4)c(Oc4cnc5[nH]ccc5c4)c3)CC2)=C(c2ccc(Cl)cc2)C1 [Venetoclax] + O=C(CCCCCCC(=O)Nc1ccccc1)NO [Vorinostat] (partner 1 µM)
A digest of the protocol:
as §1

Compound in the assay “Venetoclax + Bortezomib”: CC1(C)CCC(CN2CCN(c3ccc(C(=O)NS(=O)(=O)c4ccc(NCC5CCOCC5)c([N+](=O)[O-])c4)c(Oc4cnc5[nH]ccc5c4)c3)CC2)=C(c2ccc(Cl)cc2)C1 [Venetoclax] + CC(C)C[C@H](NC(=O)[C@H](Cc1ccccc1)NC(=O)c1cnccn1)B(O)O [Bortezomib] (partner 0.002 µM)
The gist of the method:
as §1

Compound in the assay “Selumetinib + Decitabine”: Cn1cnc2c(F)c(Nc3ccc(Br)cc3Cl)c(C(=O)NOCCO)cc21 [Selumetinib] + Nc1ncn([C@H]2C[C@H](O)[C@@H](CO)O2)c(=O)n1 [Decitabine] (partner 2 µM)
The gist of the method: as §1

With UMC-11, the relative viability stood at 0.459 with Selumetinib + OSI-027 (first compound 0.02 µM); 0.471 with Selumetinib + OSI-027 (first compound 0.06325 µM); 0.379 with Selumetinib + OSI-027 (first compound 0.2 µM); 0.45 in the assay with Selumetinib + OSI-027 (first compound 0.6325 µM); 0.329 with Venetoclax + Vorinostat (first compound 0.01 µM); 0.29 with Venetoclax + Vorinostat (first compound 0.03162 µM). Further, the relative viability stood at 0.274 with Venetoclax + Vorinostat (first compound 0.1 µM); 0.23 with Venetoclax + Vorinostat (first compound 0.3162 µM); 0.261 with Venetoclax + Vorinostat (first compound 1 µM); 0.625 in the assay with Venetoclax + Bortezomib (first compound 0.01 µM); 0.889 with Venetoclax + Bortezomib (first compound 0.03162 µM); 0.604 with Venetoclax + Bortezomib (first compound 0.1 µM). Also, the relative viability with Venetoclax + Bortezomib (first compound 0.3162 µM) came out at 0.732; with Venetoclax + Bortezomib (first compound 1 µM), 0.691; in the assay with Selumetinib + Decitabine (first compound 0.02 µM), 0.653; in the assay with Selumetinib + Decitabine (first compound 0.06325 µM) it was 0.624; with Selumetinib + Decitabine (first compound 0.2 µM) it was 0.619; with Selumetinib + Decitabine (first compound 0.6325 µM), 0.643.
